Assays:
[1] = biological target: T1, von Hippel-Lindau disease tumor suppressor/SWI/SNF-related matrix-associated actin-dependent regulator of chromatin subfamily A member 4 (Homo sapiens, UniProt P51532+P40337); assay: PROTAC activity at VHL/C-terminal HiBiT fused SMARCA4 in human HeLa cells assessed as induction of SMARCA4 degradation incubated for 24 hrs by Nano-Glo HiBiT analysis; type: cell-based
Target sequence in this assay (P51532 whole entry, the tested form may be a part): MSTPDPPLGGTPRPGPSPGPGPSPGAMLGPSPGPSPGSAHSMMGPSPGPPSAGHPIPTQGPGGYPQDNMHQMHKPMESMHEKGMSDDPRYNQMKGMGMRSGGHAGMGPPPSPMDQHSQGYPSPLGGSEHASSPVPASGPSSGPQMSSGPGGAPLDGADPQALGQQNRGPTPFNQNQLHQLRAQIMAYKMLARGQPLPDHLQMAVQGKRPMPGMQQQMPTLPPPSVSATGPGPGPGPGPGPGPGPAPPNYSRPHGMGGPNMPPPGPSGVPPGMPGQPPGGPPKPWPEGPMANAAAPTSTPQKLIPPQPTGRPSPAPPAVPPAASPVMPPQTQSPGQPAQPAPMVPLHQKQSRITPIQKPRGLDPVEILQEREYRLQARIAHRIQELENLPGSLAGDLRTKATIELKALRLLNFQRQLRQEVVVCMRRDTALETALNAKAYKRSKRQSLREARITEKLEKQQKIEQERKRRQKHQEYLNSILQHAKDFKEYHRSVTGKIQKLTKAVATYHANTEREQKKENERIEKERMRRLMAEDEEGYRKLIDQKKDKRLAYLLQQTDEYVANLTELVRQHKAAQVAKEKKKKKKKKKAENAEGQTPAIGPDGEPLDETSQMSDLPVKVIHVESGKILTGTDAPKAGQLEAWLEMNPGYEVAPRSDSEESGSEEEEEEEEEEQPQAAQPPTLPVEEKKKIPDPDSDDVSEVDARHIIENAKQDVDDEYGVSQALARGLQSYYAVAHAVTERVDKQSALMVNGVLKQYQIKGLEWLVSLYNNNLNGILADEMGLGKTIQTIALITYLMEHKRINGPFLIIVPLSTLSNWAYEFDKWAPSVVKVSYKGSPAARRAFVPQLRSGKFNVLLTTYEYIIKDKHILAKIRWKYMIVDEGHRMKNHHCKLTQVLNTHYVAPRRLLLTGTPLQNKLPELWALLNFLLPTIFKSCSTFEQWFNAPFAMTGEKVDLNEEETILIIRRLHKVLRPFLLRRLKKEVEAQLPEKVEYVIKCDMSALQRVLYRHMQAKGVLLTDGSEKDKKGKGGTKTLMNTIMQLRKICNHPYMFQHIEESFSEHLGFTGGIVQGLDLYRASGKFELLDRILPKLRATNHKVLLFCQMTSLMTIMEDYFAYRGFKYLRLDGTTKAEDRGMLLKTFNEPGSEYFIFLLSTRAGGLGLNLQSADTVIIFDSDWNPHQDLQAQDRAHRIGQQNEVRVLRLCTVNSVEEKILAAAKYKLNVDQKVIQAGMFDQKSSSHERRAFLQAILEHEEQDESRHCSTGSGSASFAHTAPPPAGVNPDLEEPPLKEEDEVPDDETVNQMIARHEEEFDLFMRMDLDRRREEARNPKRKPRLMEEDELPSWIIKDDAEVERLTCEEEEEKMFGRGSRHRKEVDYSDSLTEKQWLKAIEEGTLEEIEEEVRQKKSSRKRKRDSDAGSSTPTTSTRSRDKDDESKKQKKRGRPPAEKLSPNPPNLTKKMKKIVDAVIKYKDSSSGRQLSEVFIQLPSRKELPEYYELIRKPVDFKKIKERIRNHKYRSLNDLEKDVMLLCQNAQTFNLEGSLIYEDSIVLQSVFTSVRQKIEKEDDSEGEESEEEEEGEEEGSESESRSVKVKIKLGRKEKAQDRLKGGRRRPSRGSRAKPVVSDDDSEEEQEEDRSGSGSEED
Target sequence in this assay (P40337 whole entry, the tested form may be a part): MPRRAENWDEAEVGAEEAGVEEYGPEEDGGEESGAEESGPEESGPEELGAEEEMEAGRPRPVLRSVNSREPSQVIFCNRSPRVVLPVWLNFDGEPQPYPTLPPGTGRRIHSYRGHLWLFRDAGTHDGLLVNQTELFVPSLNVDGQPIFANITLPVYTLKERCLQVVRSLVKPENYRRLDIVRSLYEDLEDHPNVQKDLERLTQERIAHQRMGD

[2] = biological target: T2, von Hippel-Lindau disease tumor suppressor/SWI/SNF-related matrix-associated actin-dependent regulator of chromatin subfamily A member 2 (Homo sapiens, UniProt P51531+P40337); assay: PROTAC activity at VHL/SMARCA2 in human SW1573 cells assessed as induction of SMARCA2 degradation by measuring maximal efficacy incubated for 20 hrs by Western blotting analysis relative to control; type: cell-based
[3] = biological target: T1, von Hippel-Lindau disease tumor suppressor/SWI/SNF-related matrix-associated actin-dependent regulator of chromatin subfamily A member 4; assay: PROTAC activity at VHL/C-terminal HiBiT fused SMARCA4 in human HeLa cells assessed as induction of SMARCA4 degradation incubated for 6 to 48 hrs by Nano-Glo HiBiT analysis; type: cell-based; details: dose lower 1e-05 µM, dose upper 1.0 µM, time 6-48 hrs
[4] = biological target: T1, von Hippel-Lindau disease tumor suppressor/SWI/SNF-related matrix-associated actin-dependent regulator of chromatin subfamily A member 4; assay: PROTAC activity at VHL/C-terminal HiBiT fused SMARCA4 in human HeLa cells assessed as induction of SMARCA4 degradation at 0.00001 to 1 uM by Nano-Glo HiBiT analysis; type: cell-based; details: dose lower 1e-05 µM, dose upper 1.0 µM, time 6-48 hrs, TDE = time-dependent effect
[5] = tested on: NCI-H1975; assay: Antiproliferative activity against human NCI-H1975 cells expressing wild-type SMARCA2 assessed as cell growth inhibition by measuring maximal efficacy measured after 7 days by WST-8 assay relative to control; type: functional; details: time 7 day
[6] = tested on: NCI-H1792; assay: Antiproliferative activity against human NCI-H1792 cells expressing wild-type SMARCA2 assessed as cell growth inhibition measured after 7 days by WST-8 assay; type: functional; details: NCI-H1792, 168 h, time 7 day
[7] = tested on: NCI-H647; assay: Antiproliferative activity against human NCI-H647 cells expressing wild-type SMARCA2 assessed as cell growth inhibition measured after 7 days by WST-8 assay; type: functional; details: NCI-H647, 168 h, time 7 day
[8] = tested on: A549; assay: Antiproliferative activity against SMARCA4-deficient human A549 cells assessed as cell growth inhibition by measuring maximal efficacy measured after 7 days by WST-8 assay relative to control; type: functional; details: time 7 day
[9] = tested on: NCI-H838; assay: Antiproliferative activity against SMARCA4-deficient human NCI-H838 cells assessed as cell growth inhibition by measuring maximal efficacy measured after 7 days by WST-8 assay relative to control; type: functional; details: time 7 day
[10] = tested on: NCI-H838; assay: Antiproliferative activity against SMARCA4-deficient human NCI-H838 cells assessed as cell growth inhibition measured after 7 days by WST-8 assay; type: functional; details: NCI-H838, 168 h, time 7 day
[11] = Antiproliferative activity against SMARCA4-deficient human NCI-H1568 cells assessed as cell growth inhibition by measuring maximal efficacy measured after 7 days by WST-8 assay relative to control; type: functional; details: time 7 day
[12] = biological target: T2, von Hippel-Lindau disease tumor suppressor/SWI/SNF-related matrix-associated actin-dependent regulator of chromatin subfamily A member 2; assay: PROTAC activity at VHL/C-terminal HiBiT fused SMARCA2 in human HeLa cells assessed as induction of SMARCA2 degradation at 0.000001 to 1 uM by Nano-Glo HiBiT analysis; type: cell-based; details: dose lower 1e-06 µM, dose upper 1.0 µM, time 6-48 hrs, TDE = time-dependent effect
[13] = tested on: NCI-H1944; assay: Antiproliferative activity against SMARCA4-deficient human NCI-H1944 cells assessed as cell growth inhibition by measuring maximal efficacy measured after 7 days by WST-8 assay relative to control; type: functional; details: time 7 day
[14] = tested on: SK-MEL-28; assay: Antiproliferative activity against human SK-MEL-28 cells expressing wild-type SMARCA2 assessed as cell growth inhibition by measuring maximal efficacy measured after 7 days by WST-8 assay relative to control; type: functional; details: time 7 day
[15] = biological target: T2, von Hippel-Lindau disease tumor suppressor/SWI/SNF-related matrix-associated actin-dependent regulator of chromatin subfamily A member 2; assay: PROTAC activity at VHL/C-terminal HiBiT fused SMARCA2 in human HeLa cells assessed as induction of SMARCA2 degradation incubated for 24 hrs by Nano-Glo HiBiT analysis; type: cell-based
Target sequence in this assay (P51531 whole entry, the tested form may be a part): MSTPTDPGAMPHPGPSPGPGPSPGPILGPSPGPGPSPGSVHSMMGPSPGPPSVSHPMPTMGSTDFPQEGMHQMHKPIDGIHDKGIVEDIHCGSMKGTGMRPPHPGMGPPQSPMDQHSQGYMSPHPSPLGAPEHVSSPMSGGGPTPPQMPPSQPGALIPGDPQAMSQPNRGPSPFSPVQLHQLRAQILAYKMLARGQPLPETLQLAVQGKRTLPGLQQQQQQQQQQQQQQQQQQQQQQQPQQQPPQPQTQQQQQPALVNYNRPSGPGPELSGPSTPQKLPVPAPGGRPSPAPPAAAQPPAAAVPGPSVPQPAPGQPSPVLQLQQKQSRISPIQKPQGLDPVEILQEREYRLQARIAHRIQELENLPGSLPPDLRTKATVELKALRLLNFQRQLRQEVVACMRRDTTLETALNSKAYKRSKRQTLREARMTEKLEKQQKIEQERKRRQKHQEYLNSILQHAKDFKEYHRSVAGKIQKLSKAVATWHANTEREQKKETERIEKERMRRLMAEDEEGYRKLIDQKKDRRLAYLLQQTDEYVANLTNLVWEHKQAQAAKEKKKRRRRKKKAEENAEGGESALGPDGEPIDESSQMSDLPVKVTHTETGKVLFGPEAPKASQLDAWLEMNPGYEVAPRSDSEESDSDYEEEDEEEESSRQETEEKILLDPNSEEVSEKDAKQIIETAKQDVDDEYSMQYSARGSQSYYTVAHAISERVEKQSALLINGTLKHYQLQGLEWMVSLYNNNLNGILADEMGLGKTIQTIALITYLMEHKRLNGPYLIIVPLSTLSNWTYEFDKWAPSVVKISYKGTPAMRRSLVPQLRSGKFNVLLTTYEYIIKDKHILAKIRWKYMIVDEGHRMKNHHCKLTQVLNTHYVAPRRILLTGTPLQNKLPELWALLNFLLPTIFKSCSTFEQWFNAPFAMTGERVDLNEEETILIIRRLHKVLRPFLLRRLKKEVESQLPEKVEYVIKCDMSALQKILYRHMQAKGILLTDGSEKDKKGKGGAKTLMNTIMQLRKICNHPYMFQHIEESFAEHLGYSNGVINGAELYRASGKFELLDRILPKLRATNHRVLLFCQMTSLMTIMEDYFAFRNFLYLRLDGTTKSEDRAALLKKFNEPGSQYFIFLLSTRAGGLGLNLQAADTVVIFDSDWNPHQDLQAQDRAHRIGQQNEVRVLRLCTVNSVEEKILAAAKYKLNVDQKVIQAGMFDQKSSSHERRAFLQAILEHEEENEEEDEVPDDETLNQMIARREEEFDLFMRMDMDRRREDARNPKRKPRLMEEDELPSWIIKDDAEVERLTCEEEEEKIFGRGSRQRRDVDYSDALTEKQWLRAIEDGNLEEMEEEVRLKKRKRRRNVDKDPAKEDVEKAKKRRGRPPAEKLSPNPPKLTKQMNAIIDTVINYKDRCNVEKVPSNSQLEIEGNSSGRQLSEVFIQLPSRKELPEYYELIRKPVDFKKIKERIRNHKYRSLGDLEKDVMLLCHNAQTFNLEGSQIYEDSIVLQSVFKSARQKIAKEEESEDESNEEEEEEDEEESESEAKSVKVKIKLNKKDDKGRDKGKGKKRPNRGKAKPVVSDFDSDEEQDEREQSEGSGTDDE
Target sequence in this assay (P40337 whole entry, the tested form may be a part): as the sequence (P40337 whole entry, the tested form may be a part) above

[16] = tested on: A549; assay: Antiproliferative activity against SMARCA4-deficient human A549 cells assessed as cell growth inhibition measured after 7 days by WST-8 assay; type: functional; details: A549, 168 h, time 7 day
[17] = biological target: T1, von Hippel-Lindau disease tumor suppressor/SWI/SNF-related matrix-associated actin-dependent regulator of chromatin subfamily A member 4; assay: PROTAC activity at VHL/SMARCA4 in human SW1573 cells assessed as induction of […] degradation incubated for 20 hrs by Western blotting analysis; type: cell-based
Target sequence in this assay (P51532 whole entry, the tested form may be a part): as the sequence (P51532 whole entry, the tested form may be a part) above
Target sequence in this assay (P40337 whole entry, the tested form may be a part): as the sequence (P40337 whole entry, the tested form may be a part) above

[18] = tested on: NCI-H1693; assay: Antiproliferative activity against SMARCA4-deficient human NCI-H1693 cells assessed as cell growth inhibition by measuring maximal efficacy measured after 7 days by WST-8 assay relative to control; type: functional; details: time 7 day
[19] = biological target: T2, von Hippel-Lindau disease tumor suppressor/SWI/SNF-related matrix-associated actin-dependent regulator of chromatin subfamily A member 2; assay: PROTAC activity at VHL/SMARCA2 in human SW1573 cells assessed as induction of SMARCA2 degradation incubated for 20 hrs by Western blotting analysis; type: cell-based
Target sequence in this assay (P51531 whole entry, the tested form may be a part): as the sequence (P51531 whole entry, the tested form may be a part) above
Target sequence in this assay (P40337 whole entry, the tested form may be a part): as the sequence (P40337 whole entry, the tested form may be a part) above

[20] = tested on: NCI-H1299; assay: Antiproliferative activity against SMARCA4-deficient human NCI-H1299 cells assessed as cell growth inhibition measured after 7 days by WST-8 assay; type: functional; details: NCI-H1299, 168 h, time 7 day
[21] = biological target: T2, von Hippel-Lindau disease tumor suppressor/SWI/SNF-related matrix-associated actin-dependent regulator of chromatin subfamily A member 2; assay: PROTAC activity at VHL/C-terminal HiBiT fused SMARCA2 in human HeLa cells assessed as induction of SMARCA2 degradation incubated for 6 to 48 hrs by Nano-Glo HiBiT analysis; type: cell-based; details: dose lower 1e-06 µM, dose upper 1.0 µM, time 6-48 hrs
[22] = tested on: SK-MEL-28; assay: Antiproliferative activity against human SK-MEL-28 cells expressing wild-type SMARCA2 assessed as cell growth inhibition measured after 7 days by WST-8 assay; type: functional; details: SK-MEL-28, 168 h, time 7 day
[23] = Antiproliferative activity against SMARCA4-deficient human NCI-H1568 cells assessed as cell growth inhibition measured after 7 days by WST-8 assay; type: functional; details: NCI-H1568, 168 h, time 7 day
[24] = tested on: NCI-H1975; assay: Antiproliferative activity against human NCI-H1975 cells expressing wild-type SMARCA2 assessed as cell growth inhibition measured after 7 days by WST-8 assay; type: functional; details: NCI-H1975, 168 h, time 7 day
[25] = tested on: SK-MEL-5; assay: Antiproliferative activity against SMARCA4-deficient human SK-MEL-5 cells assessed as cell growth inhibition by measuring maximal efficacy measured after 7 days by WST-8 assay relative to control; type: functional; details: time 7 day
[26] = tested on: NCI-H1693; assay: Antiproliferative activity against SMARCA4-deficient human NCI-H1693 cells assessed as cell growth inhibition measured after 7 days by WST-8 assay; type: functional; details: NCI-H1693, 168 h, time 7 day
[27] = tested on: NCI-H647; assay: Antiproliferative activity against human NCI-H647 cells expressing wild-type SMARCA2 assessed as cell growth inhibition by measuring maximal efficacy measured after 7 days by WST-8 assay relative to control; type: functional; details: time 7 day
[28] = tested on: SK-MEL-5; assay: Antiproliferative activity against SMARCA4-deficient human SK-MEL-5 cells assessed as cell growth inhibition measured after 7 days by WST-8 assay; type: functional; details: SK-MEL-5, 168 h, time 7 day
[29] = tested on: NCI-H1792; assay: Antiproliferative activity against human NCI-H1792 cells expressing wild-type SMARCA2 assessed as cell growth inhibition by measuring maximal efficacy measured after 7 days by WST-8 assay relative to control; type: functional; details: time 7 day
[30] = biological target: T1, von Hippel-Lindau disease tumor suppressor/SWI/SNF-related matrix-associated actin-dependent regulator of chromatin subfamily A member 4; assay: PROTAC activity at VHL/SMARCA4 in human SW1573 cells assessed as induction of […] degradation by measuring maximal efficacy incubated for 20 hrs by Western blotting analysis relative to control; type: cell-based
[31] = tested on: NCI-H1944; assay: Antiproliferative activity against SMARCA4-deficient human NCI-H1944 cells assessed as cell growth inhibition measured after 7 days by WST-8 assay; type: functional; details: NCI-H1944, 168 h, time 7 day
[32] = tested on: NCI-H1299; assay: Antiproliferative activity against SMARCA4-deficient human NCI-H1299 cells assessed as cell growth inhibition by measuring maximal efficacy measured after 7 days by WST-8 assay relative to control; type: functional; details: time 7 day
[33] = tested on: NCI-H1793; assay: Antiproliferative activity against SMARCA4-deficient human NCI-H1793 cells assessed as cell growth inhibition measured after 7 days by WST-8 assay; type: functional; details: NCI-H1793, 168 h, time 7 day
[34] = tested on: NCI-H1793; assay: Antiproliferative activity against SMARCA4-deficient human NCI-H1793 cells assessed as cell growth inhibition by measuring maximal efficacy measured after 7 days by WST-8 assay relative to control; type: functional; details: time 7 day
[35] = biological target: T2, von Hippel-Lindau disease tumor suppressor/SWI/SNF-related matrix-associated actin-dependent regulator of chromatin subfamily A member 2; assay: PROTAC activity at VHL/C-terminal HiBiT fused SMARCA2 in human HeLa cells assessed as induction of SMARCA2 degradation by measuring maximal efficacy incubated for 24 hrs by Nano-Glo HiBiT analysis relative to control; type: cell-based
[36] = biological target: T1, von Hippel-Lindau disease tumor suppressor/SWI/SNF-related matrix-associated actin-dependent regulator of chromatin subfamily A member 4; assay: PROTAC activity at VHL/C-terminal HiBiT fused SMARCA4 in human HeLa cells assessed as induction of SMARCA4 degradation by measuring maximal efficacy incubated for 24 hrs by Nano-Glo HiBiT analysis relative to control; type: cell-based
[37] = biological target: T2, von Hippel-Lindau disease tumor suppressor/SWI/SNF-related matrix-associated actin-dependent regulator of chromatin subfamily A member 2; assay: PROTAC activity at VHL/SMARCA2 in human MV4-11 cells assessed as induction of SMARCA2 degradation by measuring maximal efficacy incubated for 18 hrs by Western blotting analysis relative to control; type: cell-based
[38] = biological target: T1, von Hippel-Lindau disease tumor suppressor/SWI/SNF-related matrix-associated actin-dependent regulator of chromatin subfamily A member 4; assay: PROTAC activity at VHL/SMARCA4 in human MV4-11 cells assessed as induction of […] degradation by measuring maximal efficacy incubated for 18 hrs by Western blotting analysis relative to control; type: cell-based
[39] = biological target: SWI/SNF-related matrix-associated actin-dependent regulator of chromatin subfamily A member 4 (Homo sapiens, UniProt P51532); assay: Binding affinity to SMARCA4 (unknown origin)
[40] = biological target: SWI/SNF-related matrix-associated actin-dependent regulator of chromatin subfamily A member 2 (Homo sapiens, UniProt P51531); assay: Binding affinity to SMARCA2 (unknown origin)

Row | SMILES | DC50 [1] [nM] | Imax [5] [%] | GI50 [6] [nM] | GI50 [7] [nM] | Imax [8] [%] | Imax [9] [%] | GI50 [10] [nM] | Imax [11] [%] | Imax [13] [%] | Imax [14] [%] | DC50 [15] [nM] | GI50 [16] [nM] | Imax [18] [%] | GI50 [20] [nM] | GI50 [22] [nM] | GI50 [23] [nM] | GI50 [24] [nM] | Imax [25] [%] | GI50 [26] [nM] | Imax [27] [%] | further results
1 | Cc1ncsc1-c1ccc([C@H](C)NC(=O)[C@@H]2C[C@@H](O)CN2C(=O)[C@@H](c2cc(N3CCC(CN4CCC(O[C@H]5C[C@H](Oc6cccc(CN7C8CCC7CN(c7cc(-c9ccccc9O)nnc7N)C8)c6)C5)CC4)CC3)no2)C(C)C)cc1 | 2 | 50 | 17 | 8.1 | 52 | 93 | 5 | 84 | 87 | 92 | 0.12 | 3.3 | 82 | 31 | 8.1 | 0.3 | 18 | 96 | 0.2 | 68 | Emax [2]: 96%; Activity [3]: Dose-Dependent Effect; Activity [4]: Tde; Activity [12]: Tde; DC50 [17]: 1.1 nM; DC50 [19]: 0.039 nM; Activity [21]: Dose-Dependent Effect; GI50 [28]: 0.4 nM; Imax [29]: 69%; Emax [30]: 92%; GI50 [31]: 0.9 nM; Imax [32]: 68%; GI50 [33]: 1 nM; Imax [34]: 67%; Emax [35]: 96%; Emax [36]: 98%
2 | Cc1ncsc1-c1ccc([C@H](C)NC(=O)[C@@H]2C[C@@H](O)CN2C(=O)[C@@H](NC(=O)CCCCCCCCCn2cc(-c3cc(-c4ccccc4O)nnc3N)cn2)C(C)(C)C)cc1 | 8 | 63 | 60 | 76 | 53 | 91 | 48 | 82 | 87 | 90 | 2 | 16 | 81 | 100 | 32 | 2.5 | 38 | 95 | 3.3 | 77 | GI50 [28]: 2.5 nM; Imax [29]: 86%; GI50 [31]: 4.8 nM; Imax [32]: 81%; GI50 [33]: 5 nM; Imax [34]: 72%; Emax [35]: 93%; Emax [36]: 94%
3 | Cc1ncsc1-c1ccc(CNC(=O)[C@@H]2C[C@@H](O)CN2C(=O)[C@@H](NC(=O)C2(F)CC2)C(C)(C)C)c(OCCOc2ccc(CN3CCN(c4cc(-c5ccccc5O)nnc4N)CC3)cc2)c1 |  |  |  |  |  |  |  |  |  |  |  |  |  |  |  |  |  |  |  |  | Emax [37]: > 95%; Emax [38]: > 95%
4 | CN1CCN(/C=C2\CCn3c2nc(=O)c2c(Cl)cccc23)CC1 |  |  |  |  |  |  |  |  |  |  |  |  |  |  |  |  |  |  |  |  | Kd [39]: 417 nM
5 | Cn1cc(-c2cc(-c3ccccc3O)nnc2N)cn1 |  |  |  |  |  |  |  |  |  |  |  |  |  |  |  |  |  |  |  |  | Kd [39]: 12.8 nM; Kd [40]: 10 nM
